# In US5693617A, “Inhibitors of the 26s proteolytic complex and the 20s proteasome contained therein” (ProScript, Inc., priority 1995, dated 1997):
# Entries after “also recorded” stand apart in the source; their conditions may differ. Non-standard residues stand in square brackets, D forms with d. Residues, ends and D or L forms follow the SMILES beside them. Nle = CCCC[C@H](N)C(=O)O
# Columns and labels:
# [1] = tested on: human cell line RAJI-K^b; assay: MHC-I antigen presentation in human cells; assay type: cell-based; details: FIG. 8
# Procedure: (§1) Antigen-presenting cells (APCs)--mouse B lymphoblastoid cell line (LB27.4)--were washed free of serum and loaded with an ovalbumin peptide (residues 257-263), which corresponds to the sequence these cells naturally generate and present. The APCs were incubated 1 hr at 37° C., electroporated with antigen, incubated 10 min on ice and washed. The antigen loaded cells were incubated 2 hrs at 37° C., fixed with paraformaldehyde, and washed. MG 101 at the concentrations indicated in FIG. 5 was present in all steps prior to fixation. APCs were assayed for antigen presentation as described in Rock et al., J. Immunol. 145:804-811 (1990) and Carbone et al., J. Exp Med. 171:377-387 (1990). […] In the left panel, APCs were treated with (open circles) or without (closed circles) MG 101 and electroporated with ovalbumin. In the right panel, APCs were treated with (open circles) or without (closed circles) MG 101 and electroporated with ovalbumin peptide. Example 7 was repeated except that the human cell line RAJI-K^b was used.
# [2] = tested on: rat soleus muscle; assay: Denervation-induced protein degradation in incubated rat soleus muscle; details: 100 μM MG 101; FIG. 4
# Procedure: One leg of each of seven rats was denervated by section of the sciatic nerve 3 days prior to sacrifice. […] After incubation, the tissue was homogenized, and ^3 -phenylalanine incorporation into protein and free tyrosine of the medium was measured.
# [3] = tested on: rat diaphragm muscle; assay: T3 induced protein degradation in incubated rat diaphragm; details: 40 μM MG 101; FIG. 3
# Procedure: T3 was administered to hypophysectomized rats for 7 days. […] After incubation, the tissue was homogenized, and ^3 -phenylalanine incorporation into protein and free tyrosine of the medium was measured.
# [4] = tested on: mouse B lymphoblastoid cell line (LB27.4); assay: MHC-I antigen presentation, electroporated antigen-presenting cells; assay type: cell-based
# Procedure: as §1, with “peptide.” for “peptide. Example 7 was repeated except that the human cell line RAJI-K^b was used.”
# [5] = target: chymotrypsin-like activity of the proteasome; details: Vinitsky et al. 1992; slow binding inhibitors; cited from earlier work
# [6] = target: T1, 26S proteasome (Oryctolagus cuniculus, UniProt G1T4Q9); assay: Inhibition of the 26S proteasome (kinetic experiments); assay type: biochemical, Rabbit; details: summary of enzyme inhibition; read-out: Ki, 26S proteasome complex activity
# T1 sequence (G1T4Q9 60-263): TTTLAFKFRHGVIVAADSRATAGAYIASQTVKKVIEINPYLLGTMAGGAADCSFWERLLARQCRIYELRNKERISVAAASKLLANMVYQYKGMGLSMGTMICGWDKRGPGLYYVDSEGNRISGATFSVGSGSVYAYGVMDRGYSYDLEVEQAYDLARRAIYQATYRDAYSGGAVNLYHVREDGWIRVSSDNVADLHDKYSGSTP
# T1 sequence (G1SU71 1-241 partner): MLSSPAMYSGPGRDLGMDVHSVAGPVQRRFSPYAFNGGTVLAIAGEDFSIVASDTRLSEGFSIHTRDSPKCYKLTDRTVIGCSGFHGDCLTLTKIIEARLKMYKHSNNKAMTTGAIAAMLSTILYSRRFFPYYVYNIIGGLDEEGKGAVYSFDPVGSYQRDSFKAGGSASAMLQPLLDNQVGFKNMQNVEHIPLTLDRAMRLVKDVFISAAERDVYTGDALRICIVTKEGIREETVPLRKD
# Excerpt: Tables I-III summarize results from kinetic experiments that measured the inhibition of the 20S and 26S proteasomes, as well as cathepsin B and calpain, enzymes that may also be involved in muscle protein turnover. In these tables, Ki values are reported, which are dissociation constants for the equilibrium that is established when enzyme and inhibitor interact to form the enzyme:inhibitor complex.
# The substances and assay conditions are briefly summarized in the footnotes to Table I. MG 101 and MG 102, also known as Calpain Inhibitor I and II, were purchased from Calbiochem as catalogue products.
# (^b) Rabbit muscle. Substrate: […]. [Mg:ATP] = 2 mM.
# [7] = tested on: rat diaphragm muscle; assay: Protein degradation in incubated rat diaphragm
# Procedure: Rat diaphragm muscle was cut into quarters and incubated in medium containing a mixture of amino acids, insulin, inhibitors of lysosomal and calcium dependent proteolysis, and MG 101 at the concentrations shown in FIG. 2. After 1 hour, ^3 H-phenylalanine was added and the incubation continued for 2 hours. Under these conditions, the ATP-dependent ubiquitin pathway is largely responsible for muscle protein degradation. After incubation, the tissue was homogenized and free tyrosine of the homogenate and medium was assayed separately. ^3 -phenylalanine incorporation into protein was also measured. Values are the means +SE of data from 7 animals. Protein synthesis was calculated from the incorporation of ^3 H-phenylalanine, and net protein breakdown was calculated from the release of tyrosine into the incubation medium. The total rate of protein breakdown is calculated from the equation:
# Total protein breakdown=Net protein breakdown+Protein synthesis
smiles,measurement,setting,value
"CCCC[C@@H](C=O)NC(=O)[C@H](CC(C)C)NC(=O)[C@H](CC(C)C)NC(C)=O [MG 101, Ac-Leu-Leu-Nle-H] (Ac-Leu-Leu-[Nle]-aldehyde)",Presentation of antigen from ovalbumin in human cells,[1],prevents antigen presentation in human cells; also recorded: inhibits presentation of antigen from ovalbumin in human cells
same,Protein degradation induced by denervation in incubated rat soleus muscle,[2],inhibits the accelerated proteolysis in muscle; also recorded: inhibition of protein degradation
same,Protein degradation induced by T3 in incubated rat diaphragm,[3],inhibits the accelerated proteolysis in muscle; also recorded: inhibition of protein degradation
same,MHC-I presentation of ovalbumin peptide,"[4]; APCs electroporated with ovalbumin peptide, FIG. 5 right panel",fails to block the presentation of the specific peptide; also recorded: does not inhibit the presentation of electroporated peptide
same,MHC-I presentation of ovalbumin,"[4]; APCs electroporated with ovalbumin, FIG. 5 left panel",inhibits the presentation of ovalbumin with class I MHC molecules; also recorded: inhibits presentation of antigen from ovalbumin
same,Ki,[5],5.7 µM
same,Ki,[6],2900 nM
same,Amino acid pools in incubated muscle,[7],nor does it significantly alter amino acid pools
same,Protein synthesis in incubated muscle,[7]; 3H-phenylalanine incorporation,does not inhibit protein synthesis
same,Protein degradation in incubated rat diaphragm,"[7]; lysosomal and calcium dependent proteolysis inhibited, FIG. 2",inhibits the breakdown of muscle protein; also recorded: inhibition of protein degradation
